Values quoted from earlier work as cited in patent US20240239832A1, “A PROCESS FOR THE PREPARATION OF N4-HYDROXYCYTIDINE AND ITS DERIVATIVES” (priority 2021, published 2024).

Columns and labels:
[1] = system: Middle East respiratory syndrome coronavirus (MERS-CoV); conditions: read-out: IC50, inhibition of replication of MERS-CoV
[2] = system: remdesivir-resistant strains of the model CoV mouse hepatitis virus (MHV); conditions: infected DBT cells
[3] = system: SARS-CoV-2; conditions: Vero cells; read-out: IC50, inhibition of replication of SARS-CoV-2
[4] = system: acute respiratory syndrome coronavirus (SARS-CoV); conditions: read-out: IC50, inhibition of replication of SARS-CoV
[5] = system: Venezuelan equine encephalitis virus (VEEV) TC-83; conditions: read-out: EC50, reduction of viral titers of VEEV TC-83

In the case of `O=c1nc(NO)ccn1[C@@H]1O[C@H](CO)[C@@H](O)[C@H]1O` [EIDD-1931, 1-(3,4-dihydroxy-5-(hydroxymethyl)tetrahydrofuran-2-yl)-4-(hydroxyamino)pyrimidin-2(1H)-one], the IC50 [1] is given as 150 nM, the “reduction of viral titers of remdesivir-resistant MHV” value [2] is given as “reduces viral titers” and the IC50 [3] is given as 300 nM. For the same molecule, the IC50 [4] was 100 nM and the EC50 [5] was 426 nM.
